Reference: patent US8309579B2, “N-hydroxyamide derivatives and use thereof” (Merck Serono SA, priority 2005, dated 2012)

Tests used:
collagenase (MMP-1) = target: T1, collagenase (MMP-1) (Homo sapiens, UniProt P03956); assay: MMP-1 enzyme inhibition assay (coumarin-labelled peptide substrate); assay type: biochemical
T1 sequence (P03956 100-469): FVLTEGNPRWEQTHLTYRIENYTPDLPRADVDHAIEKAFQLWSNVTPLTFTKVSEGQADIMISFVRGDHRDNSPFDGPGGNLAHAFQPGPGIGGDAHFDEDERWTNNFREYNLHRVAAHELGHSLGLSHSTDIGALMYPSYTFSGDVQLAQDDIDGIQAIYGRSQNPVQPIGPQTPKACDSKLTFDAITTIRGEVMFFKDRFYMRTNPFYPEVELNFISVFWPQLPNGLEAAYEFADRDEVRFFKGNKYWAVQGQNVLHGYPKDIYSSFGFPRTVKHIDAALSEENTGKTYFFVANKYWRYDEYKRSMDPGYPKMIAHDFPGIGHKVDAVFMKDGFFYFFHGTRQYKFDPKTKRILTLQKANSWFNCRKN
Procedure: (§1) Stock solutions were made up as follows: Assay Butter: 100 mM Tris-HCl pH 7.6 containing 100 mM NaCl, 10 mM CaCl2, and 0.05% Brij 35.
(§2) Substrate: 0.4 mM McaPLGLDpaAR (from Bachem) (0.437 mg/ml) stock solution in 100% DMSO (stored at −20° C.). Dilute to 8 μM in assay butter.
(§3) Test Compounds were prepared initially as 10 mM compound solution in 100% DMSO, diluted to 1 mM in 100% DMSO, then serially diluted 3-fold in 100% DMSO across columns 1-10 of a 96-well microtitre plate Assay concentration range, 100 μM (column 1) to 5.1 nM (column 10).
(§4) The assay was performed in a total volume of 100 μL per well in 96-well microtitre plates. Activated enzyme (20 μL) was added to the wells followed by 20 μL of assay butter. Appropriate concentrations of test compounds dissolved in 10 μL of DMSO were then added followed by 50 μL of McaPLGLDpaAR (8 μM, prepared by dilution of DMSO stock in assay butter). For each assay ten concentrations of test compound were examined in duplicate. Control wells lack either enzyme or test compound. The reactions were incubated at 37° C. for 2 hours. The fluorescence at 405 nm was measured immediately with an SLT Fluostar fluorometer (SL T Labinstruments GmbH, Grödig, Austria) using 320 nm excitation, without stopping the reaction.
(§5) The effect of the test compound was determined from the dose response curve generated by the 10 duplicate concentrations of inhibitor. […]

gelatinase A (MMP-2) = target: T2, gelatinase A (MMP-2) (Homo sapiens, UniProt P08253); assay: MMP-2 enzyme inhibition assay (coumarin-labelled peptide substrate); assay type: biochemical
T2 sequence (P08253 110-660): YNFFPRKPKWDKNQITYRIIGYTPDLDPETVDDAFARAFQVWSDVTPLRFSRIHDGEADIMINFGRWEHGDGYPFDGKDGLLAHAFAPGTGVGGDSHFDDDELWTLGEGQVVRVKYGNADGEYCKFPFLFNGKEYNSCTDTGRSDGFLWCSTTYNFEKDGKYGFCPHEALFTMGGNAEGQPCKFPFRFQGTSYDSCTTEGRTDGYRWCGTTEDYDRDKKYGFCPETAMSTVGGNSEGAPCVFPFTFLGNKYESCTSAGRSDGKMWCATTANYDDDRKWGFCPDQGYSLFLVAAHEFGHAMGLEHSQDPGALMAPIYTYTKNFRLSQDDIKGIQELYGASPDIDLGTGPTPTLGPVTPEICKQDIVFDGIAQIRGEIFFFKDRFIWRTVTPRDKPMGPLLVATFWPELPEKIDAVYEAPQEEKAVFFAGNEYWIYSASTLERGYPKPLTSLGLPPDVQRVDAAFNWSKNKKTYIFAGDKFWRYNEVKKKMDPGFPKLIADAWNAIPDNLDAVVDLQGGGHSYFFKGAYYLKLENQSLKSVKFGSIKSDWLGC
Procedure: as §1, §2, §3, §4, §5

metalloelastase (MMP-12) = metalloelastase (MMP-12) (Homo sapiens, UniProt P39900); assay: MMP-12 enzyme inhibition assay (coumarin-labelled peptide substrate); assay type: biochemical
Procedure: as §1, §2, §3, §4, §5

[1] = system: IL-2-induced peritoneal recruitment of lymphocytes; assay: IL-2-induced peritoneal recruitment of lymphocytes; assay type: in vivo, C3H/HEN mice; settings: mice, 3 mg/kg p.o., 15 min prior to IL-2; cells collected 24 h after IL-2
Procedure: Administration of IL-2 intraperitoneally causes migration of lymphocytes into the intraperitoneal cavity. This is a model for the cellular migration that occurs during inflammation.
C3H/HEN mice (Elevage Janvier, France) were intraperitoneally injected with IL-2 (20 μg/kg, in saline).
Compounds of the invention were suspended in 0.5% carboxymethylcellulose (CMC)/0.25% tween-20 and were administered by s.c. or p.o. route (10 ml/kg) 15 min prior to administration of IL-2.
Twenty-four hours after administration of IL-2, peritoneal white blood cells were collected by 3 successive lavages of the peritoneal cavity with 5 ml phosphate buffered saline (PBS)-1 mM EDTA (+4° C.). The suspension was centrifuged (1700 g×10 min at +4° C.). The resulting pellet was suspended in 1 ml PBS-1 mM EDTA.
Lymphocytes were identified and counted using a Beckman/Coulter counter.
The animals were divided into 6 groups (6 mice each group):
Inhibition of lymphocyte recruitment was calculated as follows:
Where Ly 1=Number of lymphocytes in group 1 (E3/μl), Ly 2=Number of lymphocytes in group 2 (E3/μl), Ly X=Number of lymphocytes in group X (3-5) (E3/μl).

Sequence of metalloelastase (MMP-12) (P39900 106-470): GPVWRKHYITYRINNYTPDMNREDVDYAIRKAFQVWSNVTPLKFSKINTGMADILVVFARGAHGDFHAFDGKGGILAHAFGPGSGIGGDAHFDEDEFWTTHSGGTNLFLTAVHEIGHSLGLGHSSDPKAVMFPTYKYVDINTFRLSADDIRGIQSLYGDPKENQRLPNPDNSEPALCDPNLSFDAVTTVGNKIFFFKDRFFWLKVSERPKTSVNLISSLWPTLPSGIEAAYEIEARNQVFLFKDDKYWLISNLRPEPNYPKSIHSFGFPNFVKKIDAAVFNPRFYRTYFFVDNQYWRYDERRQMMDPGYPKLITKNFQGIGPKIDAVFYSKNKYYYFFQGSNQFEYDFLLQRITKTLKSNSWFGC

Row | IC50 (collagenase (MMP-1)) [nM] | IC50 (gelatinase A (MMP-2)) [nM] | IC50 (metalloelastase (MMP-12)) [nM] | SMILES | % inhibition of IL-2-induced peritoneal recruitment of lymphocytes [1] [%]
1 | > 5000 | 13 | 68 | COc1ccc(N2CCN(C(=O)[C@@H](CC(C)C)CN(O)C=O)CC2)cc1 [Example 1, hydroxy((2S)-2-{[4-(4-methoxyphenyl)piperazin-1-yl]carbonyl}-4-methylpentyl)formamide] | 35 ± 10
2 | > 5000 | 9 | 8 | CC(C)C[C@@H](CN(O)C=O)C(=O)N1CCN(c2ccc(-c3ccccc3)cc2)CC1 [Example 2, {(2S)-2-[(4-biphenyl-4-ylpiperazin-1-yl)carbonyl]-4-methylpentyl}hydroxyformamide] | 
